Test results from patent US5770688A, “Method and composition for the treatment of mammalian HIV infection” (GSF-Forschungszentrum fur Umwelt und Gesundheit GmbH, priority 1989, dated 1998).

Tests used:
[1] = in vitro persistence of melittin within cells
[2] = system: KE37-1/111β (HIV-infected T-lymphoma cells); test: MTT test, growth of HIV infected T-lymphoma cells; type: cell-based
Experimental: (§1) The KE37-1 (uninfected) and KE37-1/111β (infected) cell lines discussed below are commercially available from the Dr. Robert Gallows Laboratory of the NIH in the United States of America and grown in a medium of RPMI 1640 (GIBCO) and further supplemented with 10% fetal calf serum which contained approximately 100 units of penicillin, 100 μg streptomycin, and approximately 0.25 μg fungizone (Amphotericin B) per milliliter. The human mesenchymal cell lines LC5 and LC5-HIV, discussed below, are deposited with the Collection De L'Institut Pasteur of Paris, France on Mar. 9, 1989 and given the accession numbers I-842 and I-843, respectively. The LC5 and LC5-HIV cell lines were grown in a medium of RPMI 1640 and supplemented with 10% fetal calf serum.
Referring more particularly to FIGS. 1-4, melittin (Seq. ID NO:1) and its specified analogues were tested for their effect on HIV-infected T-lymphoma cells. In this regard the following cell lines were employed in the testing: KE37-1 (uninfected) and KE37-1/111S (infected with HTLV-111β). These infected cells were incubated for a period of seven days under test conditions at a temperature of 37° C. and in the presence of 5% CO2. A culture medium of RPMI 1640 (GIBCO) was employed and was further supplemented with 10% fetal calf serum which contained approximately 100 units of penicillin, 100μ of streptomycin, and approximately 0.25μ fungizone (Amphotericin B) per milliliter. This equals 1 milliliter of antibiotic-antimycotic solution (GIBCO Catalogue No. 043-05240 per 100 ml. of medium.) After a one week incubation period in the presence of various concentrations of the above-identified substances, which were added fresh daily to the medium, the following tests were carried out with the cultures. A first test was conducted for purposes of determining the relative cell concentration as a function of the number of HIV infected cells present by employing an MTT test. […] The optical density (OD) of the solution was determined at=600 nm. […]

[3] = system: KE37-1 (uninfected) cells; test: MTT test, growth of non-infected cells; type: cell-based; conditions: KE37-1, seven days incubation; 10080 min
Experimental: as §1
Referring more particularly to FIGS. 1-4, melittin (Seq. ID NO:1) and its specified analogues were tested for their effect on HIV-infected T-lymphoma cells. In this regard the following cell lines were employed in the testing: KE37-1 (uninfected) and KE37-1/111S (infected with HTLV-111β). These infected cells were incubated for a period of seven days under test conditions at a temperature of 37° C. and in the presence of 5% CO2. […] The optical density (OD) of the solution was determined at=600 nm. […]

HIV = test: relative infectious nature of culture supernatant, indirect immunoperoxidase staining of LC5 cells; type: cell-based
Experimental: Referring more particularly to FIGS. 1-4, melittin (Seq. ID NO:1) and its specified analogues were tested for their effect on HIV-infected T-lymphoma cells. In this regard the following cell lines were employed in the testing: KE37-1 (uninfected) and KE37-1/111S (infected with HTLV-111β). These infected cells were incubated for a period of seven days under test conditions at a temperature of 37° C. and in the presence of 5% CO2. A culture medium of RPMI 1640 (GIBCO) was employed and was further supplemented with 10% fetal calf serum which contained approximately 100 units of penicillin, 100μ of streptomycin, and approximately 0.25μ fungizone (Amphotericin B) per milliliter. […] A first test was conducted for purposes of determining the relative cell concentration as a function of the number of HIV infected cells present by employing an MTT test. The MTT test was carried out in microtiter plates according to T. Mosmann, "Rapid Colorimetric Assay for Cellular Growth and Survival: Application to Proliferation and Cytotoxicity Assays," Journal of Immunological Methods, v. 65 (1983), pp. 55-63. The MTT test was slightly modified: 10 μl of an MTT solution (5 mg/ml MTT dissolved in PBS, sterilized by filtration; MTT is 3-(4,5-Dimethylthiazole-2-yl)-2,5-diphenyltetrazolimbromide) were added to every well. […] The optical density (OD) of the solution was determined at=600 nm. […]

Gly-Ile-Gly-Ala-Val-Leu-Lys-Val-Leu-Thr-Thr-Gly-Leu-Pro-Ala-Leu-Ile-Ser-Trp-Ile-Lys-Arg-Lys-Arg-Gln-Gln-Amide [melittin]
time detectable in tact within the cells [1]: more than 48 hours | level of growth of the cells ([2]; 2.5 μg per ml): appears not yet influenced | selective toxicity/growth inhibition of HIV infected cells, in words ([2]; FIGS. 1-4): appears to inhibit the growth of HIV infected cells selectively | concentration toxic to HIV infected cells ([2]; KE37-1/111β, seven days incubation, 10080 min): above 5 μg per ml | concentration toxic to non-infected cells [3]: above 5 μg per ml | ability of the cells to infect (INF%) (HIV; 2.5 μg per ml, FIG. 2): revert substantially back to zero | supernatant infectivity (HIV; single treatment at cultivation start, subtoxic concentrations, seven days post treatment): supernatant infectivity was reduced
